The structures appear in SMILES notation.

Experiment [1] deals with L1210. In words: Inhibitory activity against mouse leukemia L1210 cells; Range is 20 to >50. Format: functional, cell-based.
Experiment [2] concerns L1210. The experiment can be described thus: Inhibitory activity against mouse leukemia L1210 cells. Format: functional, cell-based.

In experiment [1], `CC(CCCOC(=O)c1ccc2ccccc2n1)C1CC[C@H]2[C@@H]3[C@H](O)CC4C[C@H](OC(=O)c5cnc6ccccc6n5)CC[C@]4(C)[C@H]3C[C@H](O)[C@]12C` (stereo not given in full) registered an IC50 greater than 50 µM.
In turn, `CC(CCCOC(=O)c1cnc2ccccc2c1)C1CC[C@H]2[C@@H]3[C@H](O)CC4C[C@H](OC(=O)c5cnc6ccccc6c5)CC[C@]4(C)[C@H]3C[C@H](O)[C@]12C` (stereo not given in full) came in with an IC50 in experiment [1] greater than 50 µM.
The same measure, in the same setting: to `CC(CCCOC(=O)c1ccc2ccccc2n1)C1CC[C@H]2[C@@H]3[C@H](O)CC4C[C@H](OC(=O)c5ccc6ccccc6n5)CC[C@]4(C)[C@H]3C[C@H](O)[C@]12C` (stereo not given in full) belongs greater than 50 µM.
On the same count and under the same terms, to `CC(CCCOC(=O)c1cnc2ccccc2n1)C1CC[C@H]2[C@@H]3[C@H](O)CC4C[C@H](OC(=O)c5cnc6ccccc6n5)CC[C@]4(C)[C@H]3C[C@H](O)[C@]12C` (stereo not given in full) belongs greater than 50 µM.
In the case of `CC(CCCOC(=O)c1cnc2ccccc2c1)C1CC[C@H]2[C@@H]3[C@H](O)CC4C[C@H](O)CC[C@]4(C)[C@H]3C[C@H](O)[C@]12C` (stereo not given in full), the IC50 in experiment [2] is 4.8 µM.

The term IC50 denotes the midpoint of a concentration-inhibition curve. Higher therefore signals lower potency.

(Values after ChEMBL document CHEMBL1127888, “Synthesis and biological activity of intercalator substituted bile steroids” (Bioorg Med Chem Lett, 1994).)
